Source: publication PMC4257840 (Journal of Medicinal Chemistry, 2014)
Where two headings read alike, the source gives them in different places.

Legend:
Der p 1 = biological target: T1, Der p 1 (Dermatophagoides pteronyssinus, UniProt P08176); assay: biochemical; type: biochemical
T1 sequence (P08176 99-320): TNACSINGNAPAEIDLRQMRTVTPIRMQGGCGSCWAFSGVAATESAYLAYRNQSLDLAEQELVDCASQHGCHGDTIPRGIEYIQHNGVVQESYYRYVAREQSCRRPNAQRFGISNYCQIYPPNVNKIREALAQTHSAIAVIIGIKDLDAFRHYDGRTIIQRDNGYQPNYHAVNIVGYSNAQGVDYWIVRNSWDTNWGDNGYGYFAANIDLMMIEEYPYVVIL
Procedure: Automated screening of inhibitory activity toward group 1 HDM peptidase allergens was performed as described elsewhere[25],[43] with the minor modification that Der p 1 or Der f 1 were incubated with inhibitors for 20 min prior to initiation of reactions by addition of substrate. In initial screening, the activity of each compound was measured using a series of 10 doubling dilutions from a starting concentration of 50 μM. […] Assays were performed in triplicate for calculation of mean ± SE IC50 values.

human liver Cat B = human liver Cat B (Homo sapiens, UniProt P07858); assay: Cathepsin B inhibition assay; conditions: for IC50: read-out: Cat B IC50, mean ± SE
Procedure: Inhibition of Cat B was measured as described with modifications.[25] […] Progress curves were followed at 30 °C by detection of fluorescence at 320/420 nm (excitation/emission).
In all cases, for reactions involving inhibitors, the amount of reaction buffer was adjusted to 60 μL, the inhibitor added as a 10 μL aliquot, and incubated for 20 min with the enzyme prior to reaction start.

[1] = Measurement of LogD7.4 (n-octanol/PBS shake); type: physicochemical; conditions: single determination, n-octanol/PBS pH 7.4; read-out: Log D7.4
Procedure: Appendix 4. Measurement of LogD7.4
Test compounds (~1 mg) were weighed into 2 mL HPLC vials. n- Octanol (0.7 mL), pre-saturated with 10 mM phosphate buffered saline pH7.4 (PBS), was added to each vial followed b y PBS (0. 7 mL), which had been pre-saturat ed with n-octanol. The mixtures were shaken for 90 min and then centrifuged for 10 min at 4,000 rpm. The upper organic l ayer (0.2 m L) and the aqueous la yer (0.5 mL) were removed from each vial and anal yz e d b y LC -MS. Mass spect ral anal ysis was used to confirm peak identity whilst the concentration of compound was assessed by a diode arra y det ecto r. The logD for each compound was calculated b y takin g th e lo g of its concentration ratio between the oct anol and aqueous la ye r s.Given the robustness of the assa y and the fact that the info rmation was us ed onl y for gen eral guid ance, thes e measu rements were based on singlicate det erminations.

[2] = tested on: nonsensitized rats challenged with a natural mixture of HDM allergens; conditions: i.t. aerosol typically 60-360 min prior to allergen challenge, unsensitised BN rats

Compound | IC50 (Der p 1) [nM] | IC50 (Der p 1; mean ± SE) [nM] | IC50 (human liver Cat B) [nM] | logD at 1.5 h [1] | duration of protection: trend of inhibition of eosinophil recruitment with increasing pre-treatment interval [2] | inhibition of Cat B (human liver Cat B; at 2.5 μM)
Cc1n[nH]c(C)c1C(=O)N[C@H](C(=O)N[C@@H](C)C(=O)NC(C(=O)C(=O)NCc1ccccc1)C(C)C)C(C)(C)C (mixture of isomers) [Compound 30] | 67 ± 10 |  |  |  |  | 
CC(C)C(NC(=O)[C@H](C)NC(=O)[C@H](Cc1ccccc1)NC(=O)c1ccccc1)C(=O)C(=O)NC1CCOCC1 (mixture of isomers) [Compound 33] |  | 55 ± 4 | 311 ± 6 |  |  | 
CCCC[C@H](NC(=O)[C@H](C)NC(=O)[C@H](Cc1ccccc1)NC(=O)c1ccccc1)C(=O)CN1CCCC1 [Compound 3] |  | 65 |  |  |  | 
CCCC[C@H](NC(=O)[C@H](C)NC(=O)[C@H](Cc1ccccc1)NC(=O)c1ccccc1)C(=O)C(=O)N1CCCC1 [Compound 4] |  | 997 |  |  |  | 
CC(C)[C@H](NC(=O)[C@H](C)NC(=O)[C@H](Cc1ccccc1)NC(=O)c1ccccc1)C(=O)C(=O)NCc1ccccc1 [Compound 20] |  | 12 ± 2 | 50 ± 5 |  |  | 
C[C@H](NC(=O)[C@H](Cc1ccccc1)NC(=O)c1ccccc1)C(=O)N[C@H](C(=O)C(=O)NC1CCCCC1)C(C)(C)C [Compound 21] |  | 9170 ± 880 |  |  |  | 
CC(C)[C@H](NC(=O)[C@H](C)NC(=O)[C@@H](NC(=O)c1ccccc1)C(C)(C)c1ccccc1)C(=O)C(=O)NCc1ccccc1 [Compound 23] |  | 42 ± 6 | 446 ± 11 |  |  | 
CCC[C@H](NC(=O)[C@H](Cc1ccccc1)NC(=O)c1ccccc1)C(=O)N[C@H](C(=O)C(=O)NC1CCCCC1)C(C)C [Compound 24] |  | 164 ± 24 | 67 ± 1 |  |  | 
CC(C)[C@H](NC(=O)[C@H](C)NC(=O)[C@@H](NC(=O)c1cccc2ccccc12)C(C)(C)C)C(=O)C(=O)NC1CCCCC1 [Compound 25] |  | 20 ± 3 | 721 ± 35 | 4.3 |  | 
CC(C)[C@H](NC(=O)[C@H](C)NC(=O)[C@@H](NC(=O)c1ccnc2ccccc12)C(C)(C)C)C(=O)C(=O)NC1CCCCC1 [Compound 26] |  | 13 ± 2 | 628 ± 47 | 3.5 |  | 
CC(C)[C@H](NC(=O)[C@H](C)NC(=O)[C@@H](NC(=O)c1ccnc2ccccc12)C(C)(C)C)C(=O)C(=O)NCc1ccccc1 [Compound 27, Quinoline-4-carboxylic Acid {(S)-1-[(S)-1-((S)-1-Benzylaminooxalyl-2-methyl-propylcarbamoyl)-ethylcarbamoyl]-2,2-dimethyl-propyl}-amide] |  | 18 ± 1 | 3400 ± 187 | 3.4 | rise to a peak | 
CC(C)[C@H](NC(=O)[C@H](C)NC(=O)[C@@H](NC(=O)c1ccncc1)C(C)(C)C)C(=O)C(=O)NC1CCCCC1 [Compound 29, N-{(S)-1-[(S)-1-((S)-1-Cyclohexylaminooxalyl-2-methyl-propylcarbamoyl)-ethylcarbamoyl]-2,2-dimethyl-propyl}-isonicotinamide] |  | 13 ± 1 | 231 ± 17 | 2.8 | rise to a peak | 
CC(C)[C@H](NC(=O)[C@H](C)NC(=O)[C@@H](NC(=O)C1CCN(C)CC1)C(C)(C)C)C(=O)C(=O)NCc1ccccc1 [Compound 31] |  | 19 ± 2 | 283 ± 50 |  |  | 
CC(C)[C@H](NC(=O)[C@H](C)NC(=O)[C@H](Cc1ccccc1)NC(=O)c1ccccc1)C(=O)C(=O)NC1CCN(C)CC1 [Compound 34] |  | 115 ± 14 |  |  |  | 
CC(C)[C@H](NC(=O)[C@H](C)NC(=O)[C@@H](NC(=O)c1ccccc1)C(C)(C)C)C(=O)C(N)=O [Compound 36] | 6 ± 2 |  | 20 ± 3 | 1.7 |  | 
CNC(=O)C(=O)[C@@H](NC(=O)[C@H](C)NC(=O)[C@@H](NC(=O)c1ccccc1)C(C)(C)C)C(C)C [Compound 37] |  | 24 ± 5 | 494 ± 20 |  |  | 
CC(C)[C@H](NC(=O)[C@H](C)NC(=O)[C@@H](NC(=O)c1ccccc1)C(C)(C)C)C(=O)C(=O)NCc1ccc(S(N)(=O)=O)cc1 [Compound 39] |  | 6 ± 1 | 984 ± 164 |  |  | 
CC(C)[C@H](NC(=O)[C@H](C)NC(=O)[C@@H](NC(=O)c1ccccc1)C(C)(C)C)C(=O)C(=O)NCc1ccc(C(F)(F)F)cc1 [Compound 40] |  | 47 ± 7 |  |  |  | 

Compound | IC50 (Der p 1) [nM] | IC50 (Der p 1; mean ± SE) [nM] | IC50 (human liver Cat B) [nM] | logD at 1.5 h [1] | duration of protection: trend of inhibition of eosinophil recruitment with increasing pre-treatment interval [2] | inhibition of Cat B (human liver Cat B; at 2.5 μM)
CC(C)[C@H](NC(=O)[C@H](C)NC(=O)[C@@H](NC(=O)c1ccccc1)C(C)(C)C)C(=O)C(=O)NCc1ccc(CN(C)C)cc1 [Compound 41] |  | 8 ± 1 | 242 ± 31 |  |  | 
CC(C)[C@H](NC(=O)[C@H](C)NC(=O)[C@@H](NC(=O)c1ccccc1)C(C)(C)C)C(=O)C(=O)N[C@H](C)c1ccccc1 [Compound 42] |  | 17 ± 2 | 459 ± 28 |  |  | 
CC(C)[C@H](NC(=O)[C@H](C)NC(=O)[C@@H](NC(=O)c1ccccc1)C(C)(C)C)C(=O)C(=O)N[C@@H](C)c1ccccc1 [Compound 43] |  | 117 ± 34 |  |  |  | 
CC(C)[C@H](NC(=O)[C@H](C)NC(=O)[C@@H](NC(=O)c1ccccc1)C(C)(C)C)C(=O)C(=O)NCc1cn[nH]c1 [Compound 44] | 11 ± 2 |  | 367 ± 34 |  |  | 
CC(C)[C@H](NC(=O)[C@H](C)NC(=O)[C@H](Cc1ccccc1)NC(=O)c1ccccc1)C(=O)C(=O)NCC(=O)N1CCN(C)CC1 [Compound 45, N-[(S)-1-((S)-1-{(S)-2-Methyl-1-[2-(4-methyl-piperazin-1-yl)-2-oxo-ethylaminooxalyl]-propylcarbamoyl}-ethylcarbamoyl)-2-phenyl-ethyl]-benzamide] |  | 14 ± 1 | 544 ± 40 | 1.3 | waned | 
CC(C)[C@H](NC(=O)[C@H](C)NC(=O)[C@H](Cc1ccccc1)NC(=O)c1ccccc1)C(=O)C(=O)NCC(=O)N1CCCCC1 [Compound 46] | 14 ± 3 |  | 81 ± 6 | 2.6 |  | 
CC(C)[C@H](NC(=O)[C@H](C)NC(=O)[C@H](Cc1ccccc1)NC(=O)c1ccccc1)C(=O)C(=O)NCC(=O)N1CCOCC1 [Compound 47, N-((S)-1-{(S)-1-[(S)-2-Methyl-1-(2-morpholin-4-yl-2-oxo-ethylaminooxalyl)-propylcarbamoyl]-ethylcarbamoyl}-2-phenyl-ethyl)-benzamide] |  | 9 ± 1 | 88 ± 10 | 1.7 | rise to a peak | 
CC(C)[C@H](NC(=O)[C@H](C)NC(=O)[C@@H](NC(=O)c1ccccc1)C(C)(C)C)C(=O)C(=O)NCC(=O)N1CCN(C)CC1 [Compound 48] |  | 14 ± 2 | > 2500 | 1 |  | no significant inhibition
CC(C)[C@H](NC(=O)[C@H](C)NC(=O)[C@H](Cc1ccccc1)NC(=O)c1ccccc1)C(=O)C(=O)NCC(=O)N1CCN(C(C)C)CC1 [Compound 49] |  | 4 ± 1 | > 2500 | 1.6 |  | 
CC(C)[C@H](NC(=O)[C@H](C)NC(=O)[C@H](Cc1ccccc1)NC(=O)c1ccccc1)C(=O)C(=O)N[C@@H](C)C(=O)N1CCN(C)CC1 [Compound 50] |  | 10 ± 1 | > 2500 |  |  | 
CC(C)[C@H](NC(=O)[C@H](C)NC(=O)[C@@H](NC(=O)c1ccccc1)C(C)(C)C)C(=O)C(=O)NCC(=O)N1CCc2ccccc2C1 [Compound 51] | 6 |  | 511 ± 88 | 3.5 |  | 
CC(C)[C@H](NC(=O)[C@H](C)NC(=O)[C@@H](NC(=O)c1ccccc1)C12CC3CC(CC(C3)C1)C2)C(=O)C(=O)NCC(=O)N1CCN(C)CC1 [Compound 54] |  | 5 | > 2500 |  | waned | 
CC(C)[C@H](NC(=O)[C@H](C)NC(=O)[C@@H](NC(=O)c1ccnc2ccccc12)C(C)(C)C)C(=O)C(=O)NCC(=O)N1CCN(C(C)C)CC1 [Compound 55] |  | 3 | > 2500 |  |  | 
CC(C)[C@H](NC(=O)[C@H](C)NC(=O)[C@@H](N1Cc2ccccc2C1=O)C(C)(C)C)C(=O)C(=O)NCc1ccc(S(N)(=O)=O)cc1 [Compound 56] |  | 3 | 3050 ± 1130 |  |  | 
CNC(=O)c1ccc(CNC(=O)C(=O)[C@@H](NC(=O)[C@H](C)NC(=O)[C@@H](N2Cc3ccccc3C2=O)C(C)(C)C)C(C)C)cc1 [Compound 57] |  | 4 | 3570 ± 850 |  | rise to a peak | 
CC(C)[C@H](NC(=O)[C@H](C)NC(=O)[C@@H](N1Cc2ccccc2C1=O)C(C)(C)C)C(=O)C(=O)NCc1ccc(CN(C)C)cc1 [Compound 58] |  | 4 | 2850 ± 662 |  |  | 
CC(C)[C@H](NC(=O)[C@H](C)NC(=O)[C@@H](NC(=O)c1cccc2ccccc12)C(C)(C)C)C(=O)C(=O)NCc1ccc(S(N)(=O)=O)cc1 [Compound 59] |  | 4 | 532 ± 136 |  |  | 
